From patent publication US7317038B2, “Nerve regeneration promoters containing semaphorin inhibitor as the active ingredient” (Dainippon Sumitomo Pharma Co., Ltd., priority 2000, dated 2008)

Tested on: adult rat models for olfactory nerve axotomy
Experiment: In vivo nerve regeneration after olfactory nerve axotomy
Conditions: for Positive section No. (which section from the vertex, average ± SE): HRP-positive glomerulus
Protocol: Male Wister rats (6.5-week-old) were purchased from CHARLES RIVER JAPAN, INC. and bred under free feeding and water uptake in the dedicated breeding room. A sample solution was prepared by diluting SPF-3059-1 to lmg/ml with PBS and filled in an osmotic pressure pump (alzet 2004, ALZA co., USA). A pump filled with PBS was used as a control. The sample solution and the like were prepared on the day before the operation and the osmotic pressure pump was bathed in PBS and placed overnight at room temperature. Just before the operation, a L-cannula was connected to the one end of a silicon tube filled with the sample solution and the like, and the other end of the tube was connected to the pump. A rat was anesthetized with pentbarbital (50 mg/kg, intrapenitrially injected), and its head was fixed to the stereotaxic apparatus. The scalp was incised along the median and the cranium above the olfactory bulb was opened to expose the olfactory bulb (anterior part). In order to axotomize olfactory nerve, a knife (a razor was cut into 1.5 mm width) was inserted in between the olfactory bulb and the cribriform plate. The olfactory nerve which is projected on the upper olfactory bulb is axotomized by this handling. The L-cannula was fixed to the cranium-opening above the olfactory with surgical instant adhesive and dental cement so that the edge of cannula is located in the vicinity of the incision. The sample output was set to 6 μl (6 μg)/day. The pump was subcutaneously inserted in the dorsal neck and the incision was sutured. Then the animal was recovered.
Two and three weeks after the operation, the rat anesthetized with pentbarbital was laid on its back and injected with 100 μl of 1% WGA-HRP/PBS (TOYOBO) into the nasal cavity using a microsyringe. 24 hours after the HRP injection, the rat was further anesthetized with pentbarbital (50 mg/kg, intrapenitrially injected) and was thoracically incised. […]
Regeneration of olfactory nerves was quantitatively assessed by observing in which horizontal section of the olfactory bulb from the vertex did HRP-positive glomerulus emerge. […]

CC(=O)c1c(C)c(C(=O)C2COc3cc(O)c(O)c(C(=O)O)c3C2=O)cc2c(=O)c3c(C(=O)O)c(O)c(O)cc3oc12 (stereo not drawn) [SPF-3059-1]
in vivo nerve-regeneration promoting action in olfactory nerve axotomy (in words): marked nerve-regeneration promoting action | Positive section No. (which section from the vertex, average ± SE) (Week 2, 6 μg/day by osmotic pump near incision): 8.3 ± 1.9 | Positive section No. (which section from the vertex, average ± SE) (Week 3, 6 μg/day by osmotic pump near incision): 5.2 ± 1.9
